Laboratory results published in patent US20090098536A1, “Method for subgroup analysis in subjects having or being suspected of having inflammatory disease, use of anti-p38MAPK antibodies, kits and their use” (c-a-i-r- biosciences GmbH, priority 2007, published 2009).
pIC50: −log10 of the molar value.

Columns and labels:
p38MAPKα = p38MAPKα (Homo sapiens, UniProt Q16539); settings: disclosed in WO 2004/110990; cited from earlier work
[1] = tested on: patients with moderate to severe rheumatoid arthritis; experiment: VeRA trial of the p38MAPK inhibitor VX-702 in rheumatoid arthritis; type: in vivo, human; settings: according to a Monte Carlo simulation of the distribution of the effects
Description: It has been claimed that p38MAPK inhibitors were of benefit in treating a large variety of disorders. […] In the VeRA trial, which was conducted to evaluate treatment effects in terms of characteristic manifestations of the disease such as tender joints, swollen joints, morning stiffness and disease activity in a cohort of 315 patients with moderate to severe rheumatoid arthritis, approximately 40% of patients were responsive to treatment with the p38MAPK inhibitor VX-702, compared to a placebo effect of about 30%, arguing for a biochemical net response rate of about 28% according to a Monte Carlo simulation of the distribution of the effects. So far, no explanation for this evident dichotomy between responders and non-responders has been proposed yet.

[2] = tested on: patients with moderate to severe rheumatoid arthritis; settings: cohort of 315 patients with moderate to severe rheumatoid arthritis; placebo effect about 30%; cited from earlier work

Sequence of p38MAPKα (Q16539 1-360 isoform Q16539-2): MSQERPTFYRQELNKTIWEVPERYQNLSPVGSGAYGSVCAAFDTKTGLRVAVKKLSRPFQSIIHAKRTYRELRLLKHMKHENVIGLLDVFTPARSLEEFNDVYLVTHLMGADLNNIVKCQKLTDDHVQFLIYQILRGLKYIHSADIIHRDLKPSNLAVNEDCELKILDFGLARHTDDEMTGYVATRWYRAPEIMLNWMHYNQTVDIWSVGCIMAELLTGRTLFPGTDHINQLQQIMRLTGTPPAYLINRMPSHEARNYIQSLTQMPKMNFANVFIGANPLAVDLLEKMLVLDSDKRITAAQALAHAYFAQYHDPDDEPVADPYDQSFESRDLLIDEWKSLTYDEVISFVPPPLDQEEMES

SMILES	pIC50 (p38MAPKα)	biochemical net response rate [1]	patients responsive to treatment [2]
Fc1ccc(-c2nc3occn3c2-c2ccnc(NC3CC3)n2)cc1 [4-(4-fluorophenyl)-5-(2-[cyclopropyl-amino]-pyrimidyl-4-yl)-imidazooxazole]	9.36	–	–
NC(=O)c1ccc(N(C(N)=O)c2c(F)cccc2F)nc1-c1ccc(F)cc1F [VX-702]	–	about 28%	approximately 40%
